# Results published in US9663530B2, “5-oxa-2-azabicyclo[2.2.2]OCTAN-4-yl and 5-oxa-2-azabicyclo[2.2.1]heptan-4-yl derivatives” (Hoffmann-La Roche Inc., priority 2014, dated 2017).
# Columns and labels:
# mouse TAAR1 = mouse TAAR1 (Mus musculus (Mouse), UniProt Q923Y8); assay: Radioligand binding assay on mouse TAAR1; settings: mouse TAAR1 (first value of the cell); membranes of HEK-293 cells stably expressing mouse TAAR1; read-out: Ki (μM) mouse/rat
# Procedure: (§1) Construction of TAAR Expression Plasmids and Stably Transfected Cell Lines
# (§2) For the construction of expression plasmids the coding sequences of human, rat and mouse TAAR 1 were amplified from genomic DNA essentially as described by Lindemann et al.. The Expand High Fidelity PCR System (Roche Diagnostics) was used with 1.5 mM Mg^2+ and purified PCR products were cloned into pCR2.1-TOPO cloning vector (Invitrogen) following the instructions of the manufacturer. PCR products were subcloned into the pIRESneo2 vector (BD Clontech, Palo Alto, Calif.), and expression vectors were sequence verified before introduction in cell lines.
# (§3) HEK293 cells (ATCC # CRL-1573) were cultured essentially as described by Lindemann et al. (2005). For the generation of stably transfected cell lines HEK293 cells were transfected with the pIRESneo2 expression plasmids containing the TAAR coding sequences (described above) with Lipofectamine 2000 (Invitrogen) according to the instructions of the manufacturer, and 24 hrs post transfection the culture medium was supplemented with 1 mg/ml G418 (Sigma, Buchs, Switzerland). After a culture period of about 10 d clones were isolated, expanded and tested for responsiveness to trace amines (all compounds purchased from Sigma) with the cAMP Biotrak Enzyme immunoassay (EIA) System (Amersham) following the non-acetylation EIA procedure provided by the manufacturer.
# Radioligand Binding Assay on Mouse TAAR1
# (§4) Membrane Preparation and Radioligand Binding.
# HEK-293 cells stably expressing mouse TAAR1 were maintained at 37° C. and 5% CO2 in DMEM high glucose medium, containing fetal calf serum (10%, heat inactivated for 30 min at 56° C.), penicillin/streptomycin (1%), and 375 μg/ml geneticin (Gibco). Cells were released from culture flasks using trypsin/EDTA, harvested, washed twice with ice-cold PBS (without Ca^2+and Mg^2+), pelleted at 1,000 rpm for 5 min at 4° C., frozen and stored at −80° C. Frozen pellets were suspended in 20 ml HEPES-NaOH (20 mM, pH 7.4) containing 10 mM EDTA and homogenized with a Polytron (PT 6000, Kinematica) at 14,000 rpm for 20 s. The homogenate was centrifuged at 48,000×g for 30 min at 4° C. Subsequently, the supernatant was removed and discarded, and the pellet resuspended in 20 ml HEPES-NaOH (20 mM, pH 7.4) containing 0.1 mM EDTA using the Polytron (20 s at 14,000 rpm). This procedure was repeated and the final pellet resuspended in HEPES-NaOH containing 0.1 mM EDTA and homogenized using the Polytron. Typically, aliquots of 2 ml membrane portions were stored at −80° C. With each new membrane batch the dissociation constant (Kd) was determined via a saturation curve. The TAAR1 radioligand ^3[H]-(S)-4-[(ethyl-phenyl-amino)-methyl]-4,5-dihydro-oxazol-2-ylamine (described in WO 2008/098857) was used at a concentration equal to the calculated Kd value, that was usually around 0.7 nM, resulting in the binding of approximately 0.5% of the radioligand and a specific binding representing approximately 70% of the total binding. Nonspecific binding was defined as the amount of ^3[H]-(S)-4-[(ethyl-phenyl-amino)-methyl]-4,5-dihydro-oxazol-2-ylamine bound in the presence of 10 μM unlabeled ligand. All compounds were tested at a broad range of concentrations ([…]) in duplicates. The test compounds (20 […]μl/well) were transferred into a 96 deep well plate (TreffLab), and 180 μl of HEPES-NaOH (20 mM, pH 7.4) containing MgCl2 (10 mM) and CaCl2 (2 mM) (binding buffer), 300 μl of the radioligand ^3[H]-(S)-4-[(ethyl-phenyl-amino)-methyl]-4,5-dihydro-oxazol-2-ylamine at a concentration of 3.3×Kd in nM and 500 μl of the membranes (resuspended at […]) added. The 96 deep well plates were incubated for 1 hr at 4° C. Incubations were terminated by rapid filtration through Unifilter-96 plates (Packard Instrument Company) and glass filters GF/C (Perkin Elmer) presoaked for 1 hr in polyethylenimine (0.3%) and washed 3 times with 1 ml of cold binding buffer. […]
# rat TAAR1 = rat TAAR1 (Rattus norvegicus (Rat), UniProt Q923Y9); assay: Radioligand binding assay on rat TAAR1; settings: rat TAAR1 (second value of the cell); membranes of HEK-293 cells stably expressing rat TAAR1; read-out: Ki (μM) mouse/rat
# Sequence of rat TAAR1 (Q923Y9 whole entry): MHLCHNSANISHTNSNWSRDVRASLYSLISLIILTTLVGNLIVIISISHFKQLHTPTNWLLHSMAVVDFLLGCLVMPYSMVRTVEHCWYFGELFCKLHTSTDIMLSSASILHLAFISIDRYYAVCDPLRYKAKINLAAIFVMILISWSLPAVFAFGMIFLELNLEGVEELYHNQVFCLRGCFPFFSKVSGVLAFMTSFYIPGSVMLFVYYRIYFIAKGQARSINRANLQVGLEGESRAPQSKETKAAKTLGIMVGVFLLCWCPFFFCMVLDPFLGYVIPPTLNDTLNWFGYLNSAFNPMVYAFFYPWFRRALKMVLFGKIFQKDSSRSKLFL
# Procedure: as §1, §2, §3
# Radioligand Binding Assay on Rat TAAR1
# as §4
# HEK-293 cells stably expressing rat TAAR1 were maintained at 37° C. and 5% CO2 in DMEM high glucose medium, containing fetal calf serum (10%, heat inactivated for 30 min at 56° C.), penicillin/streptomycin (1%), and 375 μg/ml geneticin (Gibco). Cells were released from culture flasks using trypsin/EDTA, harvested, washed twice with ice-cold PBS (without Ca^2+ and Mg^2+), pelleted at 1,000 rpm for 5 min at 4° C., frozen and stored at −80° C. Frozen pellets were suspended in 20 ml HEPES-NaOH (20 mM, pH 7.4) containing 10 mM EDTA and homogenized with a Polytron (PT 6000, Kinematica) at 14,000 rpm for 20 s. The homogenate was centrifuged at 48,000×g for 30 min at 4° C. Subsequently, the supernatant was removed and discarded, and the pellet resuspended in 20 ml HEPES-NaOH (20 mM, pH 7.4) containing 0.1 mM EDTA using the Polytron (20 s at 14,000 rpm). This procedure was repeated and the final pellet resuspended in HEPES-NaOH containing 0.1 mM EDTA and homogenized using the Polytron. Typically, aliquots of 2 ml membrane portions were stored at −80° C. With each new membrane batch the dissociation constant (Kd) was determined via a saturation curve. […] Nonspecific binding was defined as the amount of ^3[H]-(S)-4-[(ethyl-phenyl-amino)-methyl]-4,5-dihydro-oxazol-2-ylamine bound in the presence of 10 μM unlabeled ligand. All compounds were tested at a broad range of concentrations ([…]) in duplicates. The test compounds (20 […]μl/well) were transferred into a 96 deep well plate (TreffLab), and 180 μl of HEPES-NaOH (20 mM, pH 7.4) containing MgCl2 (10 mM) and CaCl2 (2 mM) (binding buffer), 300 μl of the radioligand ^3[H]-(S)-4-[(ethyl-phenyl-amino)-methyl]-4,5-dihydro-oxazol-2-ylamine at a concentration of 3.3×Kd in nM and 500 μl of the membranes (resuspended at 50 μg protein per ml) added. The 96 deep well plates were incubated for 1 hr at 4° C. Incubations were terminated by rapid filtration through Unifilter-96 plates (Packard Instrument Company) and glass filters GF/C (Perkin Elmer) presoaked for 1 hr in polyethylenimine (0.3%) and washed 3 times with 1 ml of cold binding buffer. After addition of 45 μl of Microscint 40 (PerkinElmer) the Unifilter-96 plate was sealed and after 1 hr the ratioactivity counted using a TopCount Microplate Scintillation Counter (Packard Instrument Company).
# Sequence of mouse TAAR1 (Q923Y8 whole entry): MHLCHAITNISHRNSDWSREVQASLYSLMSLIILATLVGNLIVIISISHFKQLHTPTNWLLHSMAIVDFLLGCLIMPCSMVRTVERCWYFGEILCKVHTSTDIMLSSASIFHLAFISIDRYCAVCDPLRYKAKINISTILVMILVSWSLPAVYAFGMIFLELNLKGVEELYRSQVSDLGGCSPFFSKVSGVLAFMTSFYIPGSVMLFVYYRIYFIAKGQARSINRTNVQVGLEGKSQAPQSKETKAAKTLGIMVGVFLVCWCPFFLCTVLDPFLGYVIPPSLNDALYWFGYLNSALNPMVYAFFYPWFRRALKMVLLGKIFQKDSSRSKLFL
SMILES,Ki (mouse TAAR1) [µM],Ki (rat TAAR1) [µM]
"O=C(Nc1ccc(C(F)(F)F)cc1)Nc1ccc(C23CCC(CO2)NC3)cc1 (racemic) [Example 67, (RS)-1-[4-(5-Oxa-2-azabicyclo[2.2.2]octan-4-yl)phenyl]-3-[4-(trifluoromethyl)phenyl]urea]",0.0137,0.0263
"O=C(Nc1ccc([C@]23CN[C@H](CO2)C3)cc1)c1ccnc(C(F)(F)F)c1 [Example 60, N-[4-[(1S,4R)-5-Oxa-2-azabicyclo[2.2.1]heptan-4-yl]phenyl]-2-(trifluoromethyl)pyridine-4-carboxamide]",0.0512,0.273
"Clc1ccc(Nc2ccc([C@@]34CN[C@@H](CO3)C4)cc2)nc1 [Example 20, 5-Chloro-N-[4-[(1R,4S)-5-oxa-2-azabicyclo[2.2.1]heptan-4-yl]phenyl]pyridin-2-amine]",0.0062,1.78
"CCOc1ccc(C(=O)Nc2ccc(C[C@@]34CN[C@@H](CO3)C4)cc2)cc1 [Example 49, 4-Ethoxy-N-[4-[[(1R,4R)-5-oxa-2-azabicyclo[2.2.1]heptan-4-yl]methyl]phenyl]benzamide]",0.0067,0.142
"O=C(Nc1ccc(C[C@]23CN[C@H](CO2)C3)cc1)c1ccc(Cl)cc1 [Example 15, 4-Chloro-N-[4-[[(1S,4S)-5-oxa-2-azabicyclo[2.2.1]heptan-4-yl]methyl]phenyl]benzamide]",0.0853,0.0505
"O=C(Nc1ccc(C23CCC(CO2)NC3)cc1)c1ccc(Cl)cc1 (racemic) [Example 5, (RS)-4-Chloro-N-[4-(5-oxa-2-azabicyclo[2.2.2]octan-4-yl)phenyl]benzamide]",0.0028,0.662
"Clc1ccc(Nc2ccc(C34CCC(CO3)NC4)cc2)nc1 (racemic) [Example 3, (RS)-5-Chloro-N-[4-(5-oxa-2-azabicyclo[2.2.2]octan-4-yl)phenyl]pyridin-2-amine]",0.0141,2.46
"Clc1ccc(Nc2ccc(C[C@@]34CN[C@@H](CO3)C4)cc2)nc1 [Example 42, 5-Chloro-N-[4-[[(1R,4R)-5-oxa-2-azabicyclo[2.2.1]heptan-4-yl]methyl]phenyl]pyridin-2-amine]",0.0158,0.355
"O=C(Nc1ccc(C23CCC(CO2)NC3)cc1)c1ccc(OCC2CC2)cc1 (racemic) [Example 11, (RS)-4-(Cyclopropylmethoxy)-N-[4-(5-oxa-2-azabicyclo[2.2.2]octan-4-yl)phenyl]benzamide]",0.019,1.22
"O=C(Nc1ccc(C23CCC(CO2)NC3)cc1)c1ccc(OCC(F)(F)F)nc1 (racemic) [Example 13, (RS)—N-[4-(5-Oxa-2-azabicyclo[2.2.2]octan-4-yl)phenyl]-6-(2,2,2-trifluoroethoxy)pyridine-3-carboxamide]",0.0304,0.624
"FC(F)(F)c1cnc(Nc2ccc(C[C@]34CN[C@H](CO3)C4)cc2)cn1 [Example 32, N-[4-[[(1S,4S)-5-Oxa-2-azabicyclo[2.2.1]heptan-4-yl]methyl]phenyl]-5-(trifluoromethyl)pyrazin-2-amine]",> 10,0.854
"O=C(Nc1ccc(C[C@]23CN[C@H](CO2)C3)cc1)Nc1ccccc1Cl [Example 9, 1-(2-Chlorophenyl)-3-[4-[[(1S,4S)-5-oxa-2-azabicyclo[2.2.1]heptan-4-yl]methyl]phenyl]urea]",1.63,0.53
"CCc1ncc(C(=O)Nc2ccc(C34CCC(CO3)NC4)cc2)cn1 (racemic) [Example 35, (RS)-2-Ethyl-N-[4-(5-oxa-2-azabicyclo[2.2.2]octan-4-yl)phenyl]pyrimidine-5-carboxamide]",0.153,10
"O=C(Nc1ccc(C[C@@]23CN[C@@H](CO2)C3)cc1)Nc1ccccc1Cl [Example 43, 1-(2-Chlorophenyl)-3-[4-[[(1R,4R)-5-oxa-2-azabicyclo[2.2.1]heptan-4-yl]methyl]phenyl]urea]",0.0124,0.202
